This passage reports IC50 and MIC results from patent US10722520B2, “Heterocyclic compounds and their use in preventing or treating bacterial infections” (MUTABILIS, priority 2016, dated 2020).

Structures can show the parent of a compound that is named as a salt. Where two headings read alike, the source gives them in different places.

Some targets named below: CTX-M-15 (Escherichia coli, UniProt Q9EXV5); SHV-1 (Klebsiella pneumoniae, UniProt P0AD64); OXA-11 (Pseudomonas aeruginosa, UniProt Q06778); OXA-48 (Klebsiella pneumoniae, UniProt Q6XEC0); KPC-2 (Klebsiella pneumoniae, UniProt Q9F663); OXA-1 (Escherichia coli, UniProt P13661); TEM-1 (Escherichia coli, UniProt P62593).
A further assay addresses OXA-15 (Pseudomonas aeruginosa, UniProt Q51574). The assay is described as follows: biochemical.
Another assay deals with K. pneumoniae BAA-1898. The assay is described as follows: MIC of compound alone, broth microdilution. The note with it: Klebsiella pneumoniae, BAA1898; strain BAA-1898; compound alone; read-out: MIC compounds of the invention alone. Format: cell-based. Here is the method: (§1) Log phase bacterial suspensions were adjusted to a final density of 5×10^5 cfu/mL in cation-adjusted Mueller-Hinton broth (Becton-Dickinson) and added to each well (98 μL). Microplates were incubated for 16-20 h at 35° C. in ambient air. The MIC of the compounds was defined as the lowest concentration of said compounds that prevented bacterial growth as read by visual inspection.
For orientation: In broth dilution the organism is exposed to a series of concentrations in liquid medium.

Another assay has as its system P. aeruginosa CIP107051. The assay can be described thus: MIC of compound alone, broth microdilution. It is filed as cell-based. The note with it: Pseudomonas aeruginosa; strain CIP107051; compound alone; read-out: MIC compounds of the invention alone. The procedure:
as §1

The subject of the next assay is K. pneumoniae 6299. The assay can be described thus: MIC of compound alone, broth microdilution. Format: cell-based. The note with it: Klebsiella pneumoniae; strain 6299; compound alone; read-out: MIC compounds of the invention alone. The procedure:
as §1

The next assay has as its system E. coli 190317. The assay is described as follows: MIC of compound alone, broth microdilution. The conditions noted are these: Escherichia coli; strain 190317; compound alone; read-out: MIC compounds of the invention alone. It is filed as cell-based. Here is the method: as §1
In a further assay the test system is E. cloacae P99. The assay can be described thus: MIC of compound alone, broth microdilution. Format: cell-based. The conditions noted are these: Enterobacter cloacae; strain P99; compound alone; read-out: MIC compounds of the invention alone. The procedure: as §1
The target in another assay is CMY-37 (Citrobacter freundii, UniProt P05193). The note with it: read-out: IC50 β-lactamase CMY-37.
A further assay concerns the target AmpC (P99) (Enterobacter cloacae, UniProt P05364). The assay can be described thus: biochemical.
The next assay concerns the target AmpC (PAE) (Pseudomonas aeruginosa, UniProt P24735). The assay can be described thus: biochemical.
The mark [1] stands for this setting: class (C), nitrocefin 200 μM, 30-min pre-incubation, enzyme 0.2 nM.

A word on the IC50: it is the point on the concentration scale where inhibition reaches its midpoint. For orientation: MIC means the lowest concentration that inhibits growth of the organism. Consider `NC(=O)CNCc1cn(C2=CC3CN(C2)C(=O)N3OS(=O)(=O)O)nn1` (centres unmarked) [Example 66, [3-(4-(2-(methylamino)acetamide)triazol-1-yl)-7-oxo-1,6-diazabicyclo[3.2.1]oct-3-en-6-yl]hydrogen sulfate], for which the IC50 at CTX-M-15 is 0.54 nM; against SHV-1, 3.1 nM; against OXA-15, 7.5 nM; at OXA-11 it was 140 nM; at CMY-37 (setting [1]) it was 26 nM; against OXA-48, 0.64 nM. In addition, the IC50 is 6.1 nM against KPC-2; 14 nM at AmpC (P99); 87 nM at OXA-1; 250 nM at AmpC (PAE); 0.36 nM on TEM-1. Further, the MIC was 16 µg/mL with K. pneumoniae BAA-1898; more than 32 µg/mL with P. aeruginosa CIP107051; 32 µg/mL in the assay on K. pneumoniae 6299; 4 µg/mL in the assay on E. coli 190317; 8 µg/mL with E. cloacae P99.
In the case of `O=C1N2CC(n3cc(N4CCNCC4)cn3)=CC(C2)N1OS(=O)(=O)O` (centres unmarked) [Example 42, 2,2,2-trifluoroacetate [7-oxo-3-(4-piperazin-4-ium-1-ylpyrazol-1-yl)-1,6-diazabicyclo[3.2.1]oct-3-en-6-yl]hydrogen sulfate], the half-inhibitory concentration (IC50) against CTX-M-15 was found to be 0.47 nM; on SHV-1, 1.5 nM; on OXA-15, 34 nM; on OXA-11, 850 nM; on CMY-37 (setting [1]) it was 59 nM; against OXA-48, 9.1 nM. Also, the concentration for half-maximal inhibition (IC50) came out at 76 nM on KPC-2; 86 nM at AmpC (P99); 1600 nM against OXA-1; 180 nM at AmpC (PAE); 0.31 nM against TEM-1. Further, the MIC is more than 32 µg/mL in the assay on K. pneumoniae BAA-1898; more than 32 µg/mL in the assay with P. aeruginosa CIP107051; more than 32 µg/mL with K. pneumoniae 6299; 4 µg/mL in the assay on E. coli 190317; 16 µg/mL in the assay with E. cloacae P99.
For the compound `NCCNC(=O)c1cnn(C2=CC3CN(C2)C(=O)N3OS(=O)(=O)O)c1` (centres unmarked) [Example 38, [3-[4-(2-aminoethylcarbamoyl)pyrazol-1-yl]-7-oxo-1,6-diazabicyclo[3.2.1]oct-3-en-6-yl]hydrogen sulfate], the IC50 is 0.7 nM on CTX-M-15; 2.5 nM against SHV-1; 17 nM against OXA-15; 50 nM at OXA-11; 38 nM at CMY-37 (setting [1]); 3.2 nM on OXA-48. Also, the half-maximal inhibitory concentration (IC50) on KPC-2 is 7.5 nM; against AmpC (P99), 34 nM; against OXA-1, 180 nM; at AmpC (PAE) it was 210 nM; against TEM-1 it was 0.43 nM. Also, the minimal inhibitory concentration (MIC) was more than 32 µg/mL in the assay with K. pneumoniae BAA-1898; 32 µg/mL in the assay with P. aeruginosa CIP107051; more than 32 µg/mL in the assay with K. pneumoniae 6299; 4 µg/mL in the assay on E. coli 190317; 16 µg/mL with E. cloacae P99.
In the case of `N#Cc1cnn(C2=CC3CN(C2)C(=O)N3OS(=O)(=O)[O-])c1.[Na+]` (centres unmarked) [Example 8, sodium [3-(4-cyanopyrazol-1-yl)-7-oxo-1,6-diazabicyclo[3.2.1]oct-3-en-6-yl]sulfate], the IC50 against CTX-M-15 was 0.78 nM; against SHV-1, 2.5 nM; on OXA-15, 5.3 nM; on OXA-11, 20 nM; at CMY-37 it was 16 nM; on OXA-48, 3.5 nM. Also, the IC50 against KPC-2 came out at 3.3 nM; on AmpC (P99), 7.6 nM; against OXA-1 it was 100 nM; at AmpC (PAE), 140 nM; against TEM-1 it was 0.35 nM. Further, the MIC in the assay with K. pneumoniae BAA-1898 is more than 32 µg/mL; with P. aeruginosa CIP107051, more than 32 µg/mL; with K. pneumoniae 6299 it was more than 32 µg/mL; in the assay with E. coli 190317, 8 µg/mL; in the assay with E. cloacae P99 it was more than 32 µg/mL.
Regarding `O=C1N2CC(n3ccc(CO)n3)=CC(C2)N1OS(=O)(=O)O` (centres unmarked) [Example 12, triethylammonium [3-[3-(hydroxymethyl)pyrazol-1-yl]-7-oxo-1,6-diazabicyclo[3.2.1]oct-3-en-6-yl]sulfate], the IC50 against CTX-M-15 was found to be 0.53 nM; on SHV-1 it was 2.1 nM; against OXA-15 it was 190 nM; against OXA-11 it was 70 nM; on OXA-48, 12 nM; against KPC-2, 26 nM. Further, the 50% inhibitory concentration (IC50) was found to be 15 nM on AmpC (P99), 200 nM at OXA-1, 52 nM against AmpC (PAE) and 0.41 nM against TEM-1. The minimum inhibitory concentration (MIC) in the assay with K. pneumoniae BAA-1898 was 8 µg/mL; with P. aeruginosa CIP107051, more than 32 µg/mL; in the assay on K. pneumoniae 6299, 16 µg/mL; in the assay with E. coli 190317 it was 1 µg/mL; in the assay with E. cloacae P99 it was 4 µg/mL.
With `O=C1N2CC(n3ccc([C@H](O)CO)n3)=CC(C2)N1OS(=O)(=O)[O-].[Na+]` (stereo partly drawn) [Example 76, sodium [3-[3-[(1S)-1,2-dihydroxyethyl]pyrazol-1-yl]-7-oxo-1,6-diazabicyclo[3.2.1]oct-3-en-6-yl]sulfate], the IC50 at CTX-M-15 was 2.1 nM; on SHV-1, 7.3 nM; against OXA-15 it was 610 nM; on OXA-11 it was 260 nM; against OXA-48 it was 50 nM; at KPC-2, 73 nM. For the same compound, the IC50 on AmpC (P99) was 29 nM; against OXA-1 it was 860 nM; at AmpC (PAE), 210 nM; against TEM-1, 1.8 nM. The MIC with K. pneumoniae BAA-1898 was more than 32 µg/mL; in the assay on P. aeruginosa CIP107051, more than 32 µg/mL; with K. pneumoniae 6299, more than 32 µg/mL; with E. coli 190317 it was 8 µg/mL; in the assay on E. cloacae P99, 32 µg/mL.
Consider `O=C(Nc1cc[nH]n1)c1ccn(C2=CC3CN(C2)C(=O)N3OS(=O)(=O)[O-])n1.[Na+]` (centres unmarked) [Example 85, sodium [7-oxo-3-[3-(pyrazol-3-ylcarbamoyl)pyrazol-1-yl]-1,6-diazabicyclo[3.2.1]oct-3-en-6-yl]sulfate], for which the IC50 against CTX-M-15 amounted to 0.59 nM; against SHV-1 it was 1.6 nM; on OXA-15, 16 nM; at OXA-11 it was 7.5 nM; against OXA-48 it was 1.7 nM; against KPC-2 it was 3.4 nM. Moreover, the IC50 against AmpC (P99) worked out at 11 nM; against OXA-1 it was 22 nM; against AmpC (PAE), 130 nM; on TEM-1 it was 0.35 nM. In addition, the MIC with K. pneumoniae BAA-1898 is more than 32 µg/mL; with P. aeruginosa CIP107051, more than 32 µg/mL; in the assay with K. pneumoniae 6299, more than 32 µg/mL; in the assay on E. coli 190317, 32 µg/mL; in the assay with E. cloacae P99 it was more than 32 µg/mL.
With `O=C1N2CC(n3cc(CO)nn3)=CC(C2)N1OS(=O)(=O)O` (centres unmarked) [Example 64, sodium [3-[4-(hydroxymethyl)triazol-1-yl]-7-oxo-1,6-diazabicyclo[3.2.1]oct-3-en-6-yl]sulfate], the IC50 against CTX-M-15 turned out to be 1 nM; against SHV-1, 2.9 nM; against OXA-15, 8.7 nM; against OXA-11, 96 nM; at OXA-48, 0.7 nM; on KPC-2, 7 nM. Further, the IC50 against OXA-1 stood at 86 nM; against TEM-1, 0.52 nM. Besides, the MIC with K. pneumoniae BAA-1898 was 8 µg/mL; in the assay on P. aeruginosa CIP107051, more than 32 µg/mL; in the assay with K. pneumoniae 6299 it was 32 µg/mL; in the assay on E. coli 190317, 2 µg/mL; in the assay with E. cloacae P99, 4 µg/mL.
In the case of `O=C(c1ccn(C2=CC3CN(C2)C(=O)N3OS(=O)(=O)[O-])n1)N1CCOCC1.[Na+]` (centres unmarked) [Example 31, sodium (7-oxo-3-[3-(morpholine-4-carbonyl)pyrazol-1-yl]-1,6-diazabicyclo[3.2.1]oct-3-en-6-yl) sulfate], the IC50 was 0.62 nM on CTX-M-15; 4.4 nM against SHV-1; 88 nM at OXA-15; 33 nM on OXA-11; 3 nM against OXA-48; 11 nM on KPC-2. The IC50 against AmpC (P99) came out at 15 nM; against OXA-1, 64 nM; on AmpC (PAE), 210 nM; on TEM-1, 1.3 nM. Besides, the MIC with K. pneumoniae BAA-1898, with P. aeruginosa CIP107051, in the assay on K. pneumoniae 6299, with E. coli 190317 and in the assay with E. cloacae P99 was more than 32 µg/mL in each case.
